Results taken from PubChem BioAssay AID328 (DTP/NCI, 2004).
“And” between values parts separate entries of the source, which are not always exact repeats. Equal values may be shown once. Inconclusive results and toxic doses are left out.

Test system: BDF1 mice, P388 leukemia ip, median survival T/C
Assay: NCI In Vivo Anticancer Drug Screen. Data for tumor model P388 Leukemia (intraperitoneal) in B6D2F1 (BDF1) mice
Conditions: endpoint: median survival time, higher = longer survival
In short: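 Transplantable tumour in mice; compound vs vehicle dosing; survival scored; ratio of treated to control reported.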

[1] = dose: 50.0 mg/kg/injection, schedule: Q01DX009 (ip), vehicle: saline with Tween-80
[2] = dose: 100.0 mg/kg/injection, schedule: Q01DX009 (ip), vehicle: saline with Tween-80
[3] = dose: 25.0 mg/kg/injection, schedule: Q04DX003 (ip), vehicle: saline with Tween-80
[4] = dose: 50.0 mg/kg/injection, schedule: Q04DX003 (ip), vehicle: saline with Tween-80
[5] = dose: 100.0 mg/kg/injection, schedule: Q04DX003 (ip), vehicle: saline with Tween-80
[6] = dose: 25.0 mg/kg/injection, schedule: Q04DX003 (ip), vehicle: saline
[7] = dose: 50.0 mg/kg/injection, schedule: Q04DX003 (ip), vehicle: saline
[8] = dose: 100.0 mg/kg/injection, schedule: Q04DX003 (ip), vehicle: saline
[9] = dose: 200.0 mg/kg/injection, schedule: Q04DX003 (ip), vehicle: saline
[10] = dose: 400.0 mg/kg/injection, schedule: Q04DX003 (ip), vehicle: saline
[11] = dose: 6.25 mg/kg/injection, schedule: Q04DX003 (ip), vehicle: water
[12] = dose: 12.5 mg/kg/injection, schedule: Q04DX003 (ip), vehicle: water
[13] = dose: 25.0 mg/kg/injection, schedule: Q04DX003 (ip), vehicle: water
[14] = dose: 50.0 mg/kg/injection, schedule: Q04DX003 (ip), vehicle: water
[15] = dose: 100.0 mg/kg/injection, schedule: Q04DX003 (ip), vehicle: water
[16] = dose: 50.0 mg/kg/injection, schedule: Q01DX009 (ip), vehicle: saline
[17] = dose: 100.0 mg/kg/injection, schedule: Q01DX009 (ip), vehicle: saline
[18] = dose: 200.0 mg/kg/injection, schedule: Q01DX009 (ip), vehicle: saline
[19] = dose: 400.0 mg/kg/injection, schedule: Q01DX009 (ip), vehicle: saline with Tween-80
[20] = dose: 12.5 mg/kg/injection, schedule: Q01DX009 (ip), vehicle: saline with Tween-80
[21] = dose: 25.0 mg/kg/injection, schedule: Q01DX009 (ip), vehicle: saline with Tween-80
[22] = dose: 200.0 mg/kg/injection, schedule: Q01DX009 (ip), vehicle: saline with Tween-80
[23] = dose: 200.0 mg/kg/injection, schedule: Q04DX003 (ip), vehicle: saline with Tween-80
[24] = dose: 400.0 mg/kg/injection, schedule: Q04DX003 (ip), vehicle: saline with Tween-80

c1ccc(-c2cc3c(N4CCOCC4)nnc(N4CCOCC4)c3cn2)cc1
T/C [1]: 89 % of control
T/C [2]: 86 % of control

CC(C)(C)NC(=S)N/N=C/c1cc(Cl)cc(Cl)c1O
T/C (dose: 1.56 mg/kg/injection, schedule: Q01DX009 (ip), vehicle: saline with Tween-80): 94 % of control
T/C (dose: 3.12 mg/kg/injection, schedule: Q01DX009 (ip), vehicle: saline with Tween-80): 100 % of control
T/C (dose: 6.25 mg/kg/injection, schedule: Q01DX009 (ip), vehicle: saline with Tween-80): 99 % of control

O=C1CC2(C(=O)N1CN1CCN(c3ccc(F)cc3)CC1)c1ccccc1-c1ccccc12 (tested in a mixture with another compound)
T/C [3]: 101 % of control and 107 % of control and 121 % of control
T/C [4]: 91 % of control and 101 % of control
T/C [5]: 97 % of control and 105 % of control

CC(=O)NC1(C(=O)O)CSSC1
T/C (dose: 12.5 mg/kg/injection, schedule: Q01DX005 (ip), vehicle: saline): 107 % of control
T/C (dose: 25.0 mg/kg/injection, schedule: Q01DX005 (ip), vehicle: saline): 106 % of control
T/C [6]: 91 % of control
T/C (dose: 50.0 mg/kg/injection, schedule: Q01DX005 (ip), vehicle: saline): 104 % of control
T/C [7]: 97 % of control
T/C (dose: 100.0 mg/kg/injection, schedule: Q01DX005 (ip), vehicle: saline): 100 % of control
T/C [8]: 118 % of control
T/C (dose: 200.0 mg/kg/injection, schedule: Q01DX005 (ip), vehicle: saline): 104 % of control
T/C [9]: 114 % of control
T/C (dose: 400.0 mg/kg/injection, schedule: Q01DX005 (ip), vehicle: saline): 97 % of control
T/C [10]: 123 % of control

O=P(c1ccccc1)(N1CC1)N1CC1
T/C (dose: 7.5 mg/kg/injection, schedule: Q01DX009 (ip), vehicle: saline): 109 % of control
T/C (dose: 15.0 mg/kg/injection, schedule: Q01DX009 (ip), vehicle: saline): 123 % of control
T/C (dose: 30.0 mg/kg/injection, schedule: Q01DX009 (ip), vehicle: saline): 119 % of control

C/C=C/C(OCC)OCC
T/C [11]: 95 % of control
T/C (dose: 12.5 mg/kg/injection, schedule: Q01DX009 (ip), vehicle: water): 105 % of control
T/C [12]: 91 % of control
T/C (dose: 25.0 mg/kg/injection, schedule: Q01DX009 (ip), vehicle: water): 91 % of control
T/C [13]: 92 % of control
T/C (dose: 50.0 mg/kg/injection, schedule: Q01DX009 (ip), vehicle: water): 100 % of control
T/C [14]: 105 % of control
T/C (dose: 100.0 mg/kg/injection, schedule: Q01DX009 (ip), vehicle: water): 98 % of control
T/C [15]: 113 % of control
T/C (dose: 200.0 mg/kg/injection, schedule: Q01DX009 (ip), vehicle: water): 109 % of control
T/C (dose: 200.0 mg/kg/injection, schedule: Q04DX003 (ip), vehicle: water): 111 % of control and 113 % of control
T/C (dose: 300.0 mg/kg/injection, schedule: Q04DX003 (ip), vehicle: water): 111 % of control

O=C(O)C1CC[N-]CC1.O=C(O)C1CC[N-]CC1.O=C(O)C1CC[N-]CC1.O=C(O)C1CC[N-]CC1.[Br][Rh][Br]
T/C [16]: 111 % of control
T/C [17]: 92 % of control and 93 % of control
T/C [18]: 93 % of control and 117 % of control
T/C [9]: 116 % of control
T/C [10]: 119 % of control

COc1cc2c(cc1OC)-c1cc3cc(OC)c(OC)cc3c(CCC(=O)O)[n+]1CC2 (tested in a mixture with another compound)
T/C [17]: 106 % of control
T/C [18]: 92 % of control
T/C (dose: 400.0 mg/kg/injection, schedule: Q01DX009 (ip), vehicle: saline): 90 % of control

O=[N+]([O-])c1ccc(N/N=C\c2ccc3ccccc3n2)cc1
T/C [17]: 104 % of control
T/C [8]: 118 % of control
T/C [18]: 109 % of control
T/C [9]: 104 % of control
T/C [10]: 109 % of control

O=C(O)COCc1ccccc1
T/C (dose: 100.0 mg/kg/injection, schedule: Q01DX001 (ip), vehicle: saline sonified): 100 % of control
T/C (dose: 200.0 mg/kg/injection, schedule: Q01DX001 (ip), vehicle: saline sonified): 104 % of control
T/C (dose: 400.0 mg/kg/injection, schedule: Q01DX001 (ip), vehicle: saline sonified): 117 % of control

CN(C)/N=N/c1nc(Cc2ccccc2)[nH]c1C(N)=O
T/C (dose: 177.0 mg/kg/injection, schedule: Q01DX009 (ip), vehicle: saline with Tween-80): 100 % of control
T/C (dose: 266.0 mg/kg/injection, schedule: Q01DX009 (ip), vehicle: saline with Tween-80): 154 % of control
T/C [19]: 150 % of control
T/C (dose: 600.0 mg/kg/injection, schedule: Q01DX009 (ip), vehicle: saline with Tween-80): 195 % of control

NCCc1ccc(OCc2ccccc2)c(OCc2ccccc2)c1
T/C (dose: 8.0 mg/kg/injection, schedule: Q01DX009 (ip), vehicle: saline): 100 % of control
T/C (dose: 12.0 mg/kg/injection, schedule: Q01DX009 (ip), vehicle: saline): 104 % of control
T/C (dose: 12.5 mg/kg/injection, schedule: Q04DX003 (ip), vehicle: saline): 104 % of control
T/C (dose: 18.0 mg/kg/injection, schedule: Q01DX009 (ip), vehicle: saline): 116 % of control
T/C [6]: 104 % of control
T/C [7]: 100 % of control

Cc1[nH]c(=O)[nH]c(=O)c1NC(=O)c1ccccc1[N+](=O)[O-]
T/C [20]: 95 % of control
T/C (dose: 12.5 mg/kg/injection, schedule: Q04DX003 (ip), vehicle: saline with Tween-80): 92 % of control
T/C [21]: 104 % of control
T/C [3]: 92 % of control
T/C [1]: 87 % of control
T/C [4]: 92 % of control

CCCCCCCCCCCCCCCCOc1ccccc1CNc1cccc(S(=O)(=O)F)c1
T/C [2]: 95 % of control
T/C [22]: 95 % of control
T/C [19]: 95 % of control

O=C1C2ON=C(c3ccccc3)C2C(=O)N1OS(=O)(=O)c1ccccc1 (stereo unspecified)
T/C [2]: 100 % of control
T/C [5]: 100 % of control
T/C [22]: 109 % of control
T/C [23]: 100 % of control
T/C [24]: 100 % of control

N#CCCN(C(=S)Nc1cccc(C(F)(F)F)c1)C1CCCCC1
T/C [1]: 114 % of control and 123 % of control
T/C [2]: 110 % of control and 111 % of control
T/C [22]: 106 % of control

COc1cc2c(c(OC)c1OC)C(=O)/C(=C\c1ccccc1)O2
T/C [22]: 96 % of control

O=c1[nH]c(Cl)nc2c(Cl)c(C(Cl)(Cl)Cl)nn12
T/C [21]: 104 % of control
T/C [3]: 113 % of control
T/C [1]: 109 % of control
T/C [4]: 120 % of control
T/C [2]: 106 % of control
T/C [5]: 93 % of control and 104 % of control
T/C [22]: 109 % of control
T/C [19]: 104 % of control
T/C [24]: 86 % of control

CC(C)(C)c1cc(I)c(O)c(CN)c1
T/C [20]: 105 % of control
T/C (dose: 12.5 mg/kg/injection, schedule: Q01DX009 (ip), vehicle: saline): 95 % of control
T/C [21]: 109 % of control
T/C (dose: 25.0 mg/kg/injection, schedule: Q01DX009 (ip), vehicle: saline): 104 % of control
T/C [1]: 114 % of control
T/C [16]: 104 % of control
T/C [2]: 114 % of control

COC(=O)C(CSCSC)NC(=O)/C=C/c1ccccc1Cl (stereo unspecified)
T/C [5]: 100 % of control
T/C [23]: 87 % of control and 104 % of control
T/C [24]: 90 % of control

O=C(O)c1ccccc1Nc1ccc(Br)cc1
T/C (dose: 50.0 mg/kg/injection, schedule: Q01DX001 (ip), vehicle: saline with Tween-80): 100 % of control
T/C (dose: 100.0 mg/kg/injection, schedule: Q01DX001 (ip), vehicle: saline with Tween-80): 91 % of control

N=c1ccc2nc3ccc(N)cc3sc-2c1
T/C [6]: 100 % of control
T/C [7]: 109 % of control

COc1cc2cnccc2cc1O
T/C [11]: 97 % of control
T/C [12]: 98 % of control
T/C [13]: 118 % of control
T/C [14]: 95 % of control
T/C [15]: 98 % of control
